For assay [1], the target named is Human α2δ-1 subunit of Cav2.2 calcium channel (Homo sapiens (Human), UniProt P54289). As to the kind of experiment: Binding Assay to Human α2δ-1 Subunit of Cav2.2 Calcium Channel. To be noted: human α2δ-1 enriched membranes, 15 nM [3H]-Gabapentin, read-out: Ki(nM) alpha2delta Hum. The procedure, abridged: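 Radioligand filtration binding at the α2δ-1 subunit, test compound at five concentrations; nonspecific binding defined with 10 μM pregabalin. Incubated 60 min at 27 °C, stopped by GF/C filtration (0.5% PEI presoaked) with ice-cold 50 mM Tris-HCl pH 7.4 washes; bound radioactivity counted by scintillation.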

For assay [2], the target named is Human norepinephrine transporter (NET) (Homo sapiens (Human), UniProt P23975). The assay can be described thus: Binding Assay to Human Norepinephrine Transporter (NET). To be noted: Table 2, dual compounds; human NET enriched membranes, 5 nM [3H]-Nisoxetin; read-out: Ki(nM) NET Hum. The protocol: Binding Assay to Human Norepinephrine Transporter (NET).
Human norepinephrine transporter (NET) enriched membranes (5 μg) were incubated with 5 nM of radiolabeled [3H]-Nisoxetin in assay buffer containing 50 mM Tris-HCl, 120 mM NaCl, 5 mM KCl, pH 7.4.
NSB (non specific binding) was measured by adding 10 μM desipramine. The binding of the test compound was measured in five different concentrations. After 60 min incubation at 4° C., binding reaction was terminated by filtering through Multiscreen GF/C (Millipore) presoaked in 0.5% polyethyleneimine in Vacuum Manifold Station, followed by 3 washes with ice-cold filtration buffer containing 50 mM Tris-HCl, 0.9% NaCl, pH 7.4.
Filter plates were dried at 60° C. for 1 hour and 30 μl of scintillation cocktail were added to each well before radioactivity reading.

Structures are written as SMILES. Like-named read-outs stand apart in the source and are kept apart here.

Sequence of Human α2δ-1 subunit of Cav2.2 calcium channel (P54289 25-1103): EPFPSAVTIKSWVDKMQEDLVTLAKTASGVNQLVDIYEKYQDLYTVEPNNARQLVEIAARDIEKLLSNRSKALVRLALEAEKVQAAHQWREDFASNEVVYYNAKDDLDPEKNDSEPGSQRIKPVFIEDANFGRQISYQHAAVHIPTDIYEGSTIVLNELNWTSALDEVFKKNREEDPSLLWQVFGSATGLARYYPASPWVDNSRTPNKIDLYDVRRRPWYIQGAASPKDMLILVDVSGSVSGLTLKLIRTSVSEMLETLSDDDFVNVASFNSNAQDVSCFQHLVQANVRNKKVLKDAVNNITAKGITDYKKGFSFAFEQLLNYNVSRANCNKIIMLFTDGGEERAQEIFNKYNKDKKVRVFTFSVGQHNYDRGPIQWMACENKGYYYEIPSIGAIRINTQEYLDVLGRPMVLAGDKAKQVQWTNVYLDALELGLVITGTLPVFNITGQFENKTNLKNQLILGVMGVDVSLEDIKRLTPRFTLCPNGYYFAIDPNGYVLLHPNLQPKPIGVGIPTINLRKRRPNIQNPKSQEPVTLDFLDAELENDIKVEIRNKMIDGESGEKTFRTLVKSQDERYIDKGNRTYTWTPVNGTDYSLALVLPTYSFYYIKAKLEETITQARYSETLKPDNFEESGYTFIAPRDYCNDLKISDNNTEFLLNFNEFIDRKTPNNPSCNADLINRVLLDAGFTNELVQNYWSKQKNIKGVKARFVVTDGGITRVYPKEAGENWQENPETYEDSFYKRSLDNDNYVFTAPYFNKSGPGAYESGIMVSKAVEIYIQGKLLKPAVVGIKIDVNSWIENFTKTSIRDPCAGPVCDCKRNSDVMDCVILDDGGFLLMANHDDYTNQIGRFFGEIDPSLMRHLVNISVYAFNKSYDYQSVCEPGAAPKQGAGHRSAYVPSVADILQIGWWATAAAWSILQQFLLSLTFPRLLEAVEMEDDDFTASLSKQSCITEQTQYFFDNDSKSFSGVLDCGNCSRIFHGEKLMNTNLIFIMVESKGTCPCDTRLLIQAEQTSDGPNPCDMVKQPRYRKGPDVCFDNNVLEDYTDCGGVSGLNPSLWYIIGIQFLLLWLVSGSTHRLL
Sequence of Human norepinephrine transporter (NET) (P23975 whole entry): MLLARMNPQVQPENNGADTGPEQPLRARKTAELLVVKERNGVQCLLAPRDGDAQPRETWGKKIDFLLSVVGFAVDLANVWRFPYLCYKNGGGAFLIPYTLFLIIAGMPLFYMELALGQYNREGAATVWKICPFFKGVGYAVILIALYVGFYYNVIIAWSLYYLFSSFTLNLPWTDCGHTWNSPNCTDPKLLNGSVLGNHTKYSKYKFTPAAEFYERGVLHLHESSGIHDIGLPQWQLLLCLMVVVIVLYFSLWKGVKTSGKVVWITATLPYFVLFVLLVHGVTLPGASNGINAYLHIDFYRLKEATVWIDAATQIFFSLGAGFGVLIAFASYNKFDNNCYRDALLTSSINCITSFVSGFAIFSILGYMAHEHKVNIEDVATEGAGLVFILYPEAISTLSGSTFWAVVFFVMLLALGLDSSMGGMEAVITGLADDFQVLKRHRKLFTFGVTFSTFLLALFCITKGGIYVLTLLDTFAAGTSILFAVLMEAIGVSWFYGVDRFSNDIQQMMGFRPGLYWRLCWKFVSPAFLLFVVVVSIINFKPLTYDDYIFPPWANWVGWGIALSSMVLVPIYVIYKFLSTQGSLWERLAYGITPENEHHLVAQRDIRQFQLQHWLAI

Regarding `CNCCC(Oc1ccc(CN2CCN(C)c3nc(C)ccc3C2=O)cc1)c1ccccc1` (stereo not drawn) [Example 110, 1,8-Dimethyl-4-(4-(3-(methylamino)-1-phenylpropoxy)benzyl)-1,2,3,4-tetrahydro-5H-pyrido[2,3-e][1,4]diazepin-5-one], the Ki in assay [1] (Table 1) is 500 to 3000 nM; in assay [1] (Table 2, dual compounds), 500 to 3000 nM; in assay [2], less than 100 nM.

`CNCC[C@H](Oc1ccc(CN2CCN(C)c3nc(OC)ccc3C2=O)c(F)c1)c1ccccc1` [Example 132, (S)-4-(2-fluoro-4-(3-(methylamino)-1-phenylpropoxy)benzyl)-8-methoxy-1-methyl-1,2,3,4-tetrahydro-5H-pyrido[2,3-e][1,4]diazepin-5-one]: the Ki in assay [1] (Table 1) was 100 to 500 nM; in assay [1] (Table 2, dual compounds), 100 to 500 nM; in assay [2], less than 100 nM.

Consider `CNCC[C@H](Oc1ccc(CN2CCN(C)c3ncccc3C2=O)c(F)c1)c1ccccc1` [Example 116, (S)-4-(2-fluoro-4-(3-(methylamino)-1-phenylpropoxy)benzyl)-1-methyl-1,2,3,4-tetrahydro-5H-pyrido[2,3-e][1,4]diazepin-5-one], for which the Ki in assay [1] (Table 1) is less than 100 nM; in assay [1] (Table 2, dual compounds) it was less than 100 nM; in assay [2] it was less than 100 nM.

Turning to `CNCC[C@H](Oc1cccc(N2CCN(C)c3nc(C(F)(F)F)ccc3C2=O)c1)c1cccs1` [Example 81, (S)-1-methyl-4-(3-(3-(methylamino)-1-(thiophen-2-yl)propoxy)phenyl)-8-(trifiuoromethyl)-1.2.3,4-tetrahydro-5H-pyrido[2.3-e][1,4]diazepin-5-one], the Ki in assay [1] (Table 1) is 100 to 500 nM; in assay [1] (Table 2, dual compounds) it was 100 to 500 nM; in assay [2] it was 500 to 1000 nM.

As to `CNCC[C@H](Oc1ccc(CN2CCN(C)c3ncccc3C2=O)cc1)c1cccc(F)c1` [Example 151, (S)-4-(4-(1-(3-fluorophenyl)-3-(methylamjno)propoxy)benzyl)-1-methyl-1,2,3,4-tetrahydro-5H-pyrido[2,3-e][1,4]diazepin-5-one], the Ki in assay [1] (Table 1) was 100 to 500 nM; in assay [1] (Table 2, dual compounds), 100 to 500 nM; in assay [2] it was less than 100 nM.

Take `CNCC[C@H](Oc1ccc(CN2CCN(C)c3ncccc3C2=O)c(C)c1)c1ccccc1` [Example 114, (S)-1-methyl-4-(2-methyl-4-(3-(methylamino)-1-phenylpropoxy)benzyl)-1,2,3,4-tetrahydro-5H-pyrido[2,3-e][1,4]diazepin-5-one]: the Ki in assay [1] (Table 1) lay in the range of 100 to 500 nM; in assay [1] (Table 2, dual compounds), 100 to 500 nM; in assay [2], 100 to 500 nM.

Take `CNCC[C@H](Oc1ccc(CN2CCN(C)c3ncccc3C2=O)c(F)c1)c1ccccc1F` [Example 152, (S)-4-(2-fluoro-4-(1-(2-fluorophenyl)-3-(methylamino)propoxy)benzyl)-1-methyl-1,2,3,4-tetrahydro-5H-pyrido[2,3-e][1,4]diazepin-5-one]: the Ki in assay [1] (Table 1) is less than 100 nM; in assay [1] (Table 2, dual compounds) it was less than 100 nM; in assay [2], less than 100 nM.

Consider `CNCC[C@H](Oc1ccc(CN2CCN(C)c3nc(C(F)(F)F)ccc3C2=O)cc1)c1cccs1` [Example 93, (S)-1-methyl-4-(4-(3-(methylamino)-1-(thiophen-2-yl)propoxy)benzyl)-8-(trifluoromethyl)-1,2,3,4-tetrahydro-5H-pyrido[2,3-e][1,4]diazepin-5-one], for which the Ki is 100 to 500 nM in assay [1] (Table 1); 100 to 500 nM in assay [1] (Table 2, dual compounds); 100 to 500 nM in assay [2].

For `CNCCC(Oc1ccc(CN2CCN(C)c3nc(N)ccc3C2=O)c(F)c1)c1cccc(F)c1` (stereo not drawn) [Example 131, 8-Amino-4-(2-fluoro-4-(1-(3-fluorophenyl)-3-(methylamino)propoxy)benzyl)-1-methyl-1,2,3,4-tetrahydro-5H-pyrido[2,3-e][1,4]diazepin-5-one], the Ki in assay [1] (Table 1) was less than 100 nM; in assay [1] (Table 2, dual compounds) it was less than 100 nM; in assay [2], less than 100 nM.

On to `CNCC[C@H](Oc1ccc(CN2CCN(C)c3ncccc3C2=O)cc1)c1cccs1` [Example 90, (S)-1-methyl-4-(4-(3-(methylamino)-1-(thiophen-2-yl)propoxy)benzyl)-1,2,3,4-tetrahydro-5H-pyrido[2,3-e][1,4]diazepin-5-one], for which the Ki in assay [1] (Table 1) is less than 100 nM; in assay [1] (Table 2, dual compounds) it was less than 100 nM; in assay [2], 100 to 500 nM.

`CCNc1ccc2c(n1)N(C)CCN(Cc1ccc(OC(CCNC)c3ccccc3)cc1)C2=O` (stereo not drawn) [Example 111, 8-(Ethylamino)-1-methyl-4-(4-(3-(methylamino)-1-phenylpropoxy)benzyl)-1,2,3,4-tetrahydro-5H-pyrido[2,3-e][1,4]diazepin-5-one]: the Ki in assay [1] (Table 1) is 500 to 3000 nM; in assay [1] (Table 2, dual compounds), 500 to 3000 nM; in assay [2], less than 100 nM.

On to `CNCCC(OCc1cccc(N2CCN(C)CCC2=O)c1)c1ccccc1` (stereo not drawn) [Example 34, 1-Methyl-4-(3-((3-(methylamino)-1-phenylpropoxy)methyl)phenyl)-1,4-diazepan-5-one], for which the Ki in assay [1] (Table 1) fell in the range of 500 to 3000 nM; in assay [1] (Table 2, dual compounds), 500 to 3000 nM; in assay [2] it was 100 to 500 nM.

Turning to `CNCC[C@H](Oc1ccc(CN2CCN(C)c3ccccc3C2=O)cc1)c1cccs1` [Example 98, (S)-1-methyl-4-(4-(3-(methylamino)-1-(thiophen-2-yl)propoxy)benzyl)-1,2,3,4-tetrahydro-5H-benzo[e][1,4]diazepin-5-one], the Ki in assay [1] (Table 1) fell in the range of 500 to 3000 nM; in assay [1] (Table 2, dual compounds) it was 500 to 3000 nM; in assay [2], 100 to 500 nM.

`CNCCC(Oc1cccc(C(=O)N2CCCN(C)CC2)c1)c1ccccc1` (stereo not drawn) [Example 3, (4-Methyl-1,4-diazepan-1-yl)(3-(3-(methylamino)-1-phenylpropoxy)phenyl)methanone]: the Ki fell in the range of 500 to 3000 nM in assay [1] (Table 1); 500 to 3000 nM in assay [1] (Table 2, dual compounds); 100 to 500 nM in assay [2].

Turning to `CNCC[C@H](Oc1ccc(CN2CCCn3nccc3C2=O)c(F)c1)c1ccccc1` [Example 145, (S)-5-(2-fluoro-4-(3-(methylamino)-1-phenylpropoxy)benzyl)-5,6,7,8-tetrahydro-4H-pyrazolo[1,5-a][1,4]diazepin-4-one], the Ki is 500 to 3000 nM in assay [1] (Table 1); 500 to 3000 nM in assay [1] (Table 2, dual compounds); less than 100 nM in assay [2].

As for `CNCCC(OCc1cccc(N2CCCN(C)CC2)c1)c1ccccc1` (stereo not drawn) [Example 6, N-methyl-3-((3-(4-methyl-1,4-diazepan-1-yl)benzyl)oxy)-3-phenylpropan-1-amine], the Ki was in the range of 500 to 3000 nM in assay [1] (Table 1); 500 to 3000 nM in assay [1] (Table 2, dual compounds); 100 to 500 nM in assay [2].

Consider `CNCC[C@H](Oc1ccc(CN2CCN(C)c3ncccc3C2=O)c(Cl)c1)c1cccc(F)c1` [Example 149, (S)-4-(2-chloro-4-(1-(3-fluorophenyl)-3-(methylamino)propoxy)benzyl)-1-methyl-1,2,3,4-tetrahydro-5H-pyrido[2,3-e][1,4]diazepin-5-one], for which the Ki is less than 100 nM in assay [1] (Table 1); less than 100 nM in assay [1] (Table 2, dual compounds); less than 100 nM in assay [2].

In the case of `CNCC[C@H](Oc1ccc(CN2CCN(C)c3nc(C)ccc3C2=O)cc1)c1cccs1` [Example 91, (S)-1,8-dimethyl-4-(4-(3-(methylamino)-1-(thiophen-2-yl)propoxy)benzyl)-1,2,3,4-tetrahydro-5H-pyrido[2,3-e][1,4]diazepin-5-one], the Ki in assay [1] (Table 1) was in the range of 100 to 500 nM; in assay [1] (Table 2, dual compounds), 100 to 500 nM; in assay [2], 100 to 500 nM.

For the origin of these results see patent US11401270B2, “Alcoxyamino derivatives for treating pain and pain related conditions” (ESTEVE PHARMACEUTICALS, S.A., priority 2017, dated 2022).
